This is an account of results in patent publication US20180303807A1, “ANDROGEN RECEPTOR LIGANDS” (DUKE UNIVERSITY, priority 2015, published 2018).

The assay has as its target T1, AR (Homo sapiens, UniProt P10275).
T1 construct: expressed in transfected cells; host or cells: CV1 cells
T1 sequence (P10275 1-920): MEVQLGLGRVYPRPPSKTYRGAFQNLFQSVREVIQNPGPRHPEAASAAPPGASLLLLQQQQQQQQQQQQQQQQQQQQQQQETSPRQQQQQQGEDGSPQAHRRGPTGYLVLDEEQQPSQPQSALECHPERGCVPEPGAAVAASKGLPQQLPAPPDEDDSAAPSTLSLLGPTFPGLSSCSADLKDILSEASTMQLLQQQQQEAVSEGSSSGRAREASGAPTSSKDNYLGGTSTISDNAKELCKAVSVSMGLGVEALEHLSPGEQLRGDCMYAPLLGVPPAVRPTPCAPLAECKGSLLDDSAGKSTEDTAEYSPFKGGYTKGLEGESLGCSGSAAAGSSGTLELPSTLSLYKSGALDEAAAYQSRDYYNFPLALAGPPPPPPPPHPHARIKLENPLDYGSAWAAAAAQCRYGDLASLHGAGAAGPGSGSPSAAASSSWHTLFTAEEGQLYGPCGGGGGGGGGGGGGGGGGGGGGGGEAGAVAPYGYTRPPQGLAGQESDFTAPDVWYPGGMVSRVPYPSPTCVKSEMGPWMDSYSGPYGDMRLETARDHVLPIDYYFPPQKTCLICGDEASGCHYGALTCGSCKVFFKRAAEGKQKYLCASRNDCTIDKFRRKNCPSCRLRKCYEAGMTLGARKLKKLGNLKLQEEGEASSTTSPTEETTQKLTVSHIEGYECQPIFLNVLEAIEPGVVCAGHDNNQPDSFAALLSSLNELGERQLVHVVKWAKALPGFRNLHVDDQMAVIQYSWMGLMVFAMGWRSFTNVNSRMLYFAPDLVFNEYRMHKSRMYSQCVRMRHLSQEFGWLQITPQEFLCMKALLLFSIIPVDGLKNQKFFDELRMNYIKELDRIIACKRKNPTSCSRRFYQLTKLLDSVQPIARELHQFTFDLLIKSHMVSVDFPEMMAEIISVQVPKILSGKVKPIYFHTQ
Put plainly: Reporter gene assay, AR transcriptional (MMTV-Luc) in CV1 cells. It is filed as cell-based. The settings on record: pcDNA-AR + MMTV-Luc, 0.1 nM R1881 plus test compound, 24 hrs, read-out: B1 = AR transcriptional IC50 (μM) in CV1 cells. The method in brief: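 CV1 cells transiently co-transfected with human AR, MMTV-Luc reporter and Renilla-Luc (transfection efficiency and toxicity read-out), then stimulated 24 h with 0.1 nM R1881 plus increasing test compound concentrations. Firefly and Renilla luciferase quantified by dual-luciferase assay; IC50 derived from concentration-response.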
One may read the IC50 as the midpoint of a concentration-inhibition curve. Consider `CC1CC(=O)C2=C(C1)Nc1ccc3ccccc3c1C2c1ccc(F)cc1` (stereo not drawn) [Compound A4], for which the IC50 was 2.6 µM.

Turning to `O=C1CCCC2=C1Nc1ccc3ccccc3c1C2c1ccc([N+](=O)[O-])cc1` (stereo not drawn) [Compound A10], the IC50 was 5.7 µM.

Turning to `O=C1CCCC2=C1C(c1ccc([N+](=O)[O-])cc1)c1c(ccc3ccccc13)N2` (stereo not drawn) [Compound A1, 12-(4-nitrophenyl)-8,9,10,12-tetrahydrobenzo[a]acridin-11(7H)-one], the IC50 was determined as 4.4 µM.
